From ChEMBL document CHEMBL3739384 (Medchemcomm, 2015)

What was measured:
Format in all cases: cell-based, HEK-293T
[1] = target: Beta-2 adrenergic receptor (Homo sapiens, UniProt P07550); assay: Displacement of [3H]-dihydroalprenolol from human beta2 adrenergic receptor expressed in HEK293T cells after 1 to 1.5 hrs by liquid scintillation counting analysis
Histamine H4 receptor = Histamine H4 receptor (Homo sapiens, UniProt Q9H3N8); assay: Displacement of [3H]-histamine from human histamine H4 receptor expressed in HEK293T cells after 1 to 1.5 hrs by liquid scintillation counting analysis
Histamine H1 receptor = Histamine H1 receptor (Homo sapiens, UniProt P35367); assay: Displacement of [3H]-mepyramine from human histamine H1 receptor expressed in HEK293T cells after 1 to 1.5 hrs by liquid scintillation counting analysis
Chain of Histamine H1 receptor (P35367 whole entry): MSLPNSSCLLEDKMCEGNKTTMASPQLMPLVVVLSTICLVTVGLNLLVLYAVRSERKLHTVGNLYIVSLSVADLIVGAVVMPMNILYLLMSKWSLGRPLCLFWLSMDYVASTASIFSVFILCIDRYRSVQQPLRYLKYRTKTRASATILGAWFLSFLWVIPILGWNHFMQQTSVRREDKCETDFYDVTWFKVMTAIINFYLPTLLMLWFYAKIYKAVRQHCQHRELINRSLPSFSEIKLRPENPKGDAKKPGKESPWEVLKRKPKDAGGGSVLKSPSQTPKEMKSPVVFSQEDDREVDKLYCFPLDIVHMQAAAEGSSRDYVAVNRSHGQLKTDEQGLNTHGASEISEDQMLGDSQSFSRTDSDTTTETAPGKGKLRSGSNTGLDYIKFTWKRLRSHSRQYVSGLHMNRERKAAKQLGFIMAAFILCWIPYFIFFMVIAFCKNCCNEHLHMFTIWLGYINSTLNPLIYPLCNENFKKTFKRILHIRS

Chain of Beta-2 adrenergic receptor (P07550 whole entry): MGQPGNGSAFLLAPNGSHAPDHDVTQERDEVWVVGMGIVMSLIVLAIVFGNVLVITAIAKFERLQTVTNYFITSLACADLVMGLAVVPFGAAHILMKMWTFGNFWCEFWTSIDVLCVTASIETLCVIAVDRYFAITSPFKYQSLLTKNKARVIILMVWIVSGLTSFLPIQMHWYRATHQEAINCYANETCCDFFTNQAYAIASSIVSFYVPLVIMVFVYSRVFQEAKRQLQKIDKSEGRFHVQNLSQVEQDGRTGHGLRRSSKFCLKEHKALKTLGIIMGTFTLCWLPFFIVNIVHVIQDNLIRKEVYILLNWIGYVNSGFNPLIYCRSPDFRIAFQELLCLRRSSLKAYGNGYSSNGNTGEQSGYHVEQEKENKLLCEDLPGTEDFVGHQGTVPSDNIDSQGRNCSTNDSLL

Row | SMILES | Ki [1] [µM] | Ki (Histamine H4 receptor) [µM] | Ki (Histamine H1 receptor) [µM]
1 | CN1CCN(c2ncnc3c2oc2ccccc23)CC1 | > 10 | 0.145 | 
2 | COc1ccc2[nH]c3c(N4CCN(C)CC4)ncnc3c2c1 | > 10 | 5.89 | 
3 | COc1ccc2c(c1)[nH]c1c(N3CCN(C)CC3)ncnc12 | > 10 | 6.31 | 
4 | Cc1nnc2c(N3CCN(C)CC3)nc3ccccc3n12 |  | 6.46 | < 10
5 | CN(C)CCNc1ncnc2c1[nH]c1ccc(Cl)cc12 | > 10 | 5.89 | 
6 | Cc1cc(N2CCN(C)CC2)nc(N2CCOCC2)n1 |  | 6.92 | < 10

More lines, in order of falling Ki (Histamine H4 receptor), values ahead:

Row | Ki [1] [µM] | Ki (Histamine H4 receptor) [µM] | Ki (Histamine H1 receptor) [µM] | SMILES
7 |  | 6.92 | > 10 | Cc1cc2nc(SCCN(C)C)[nH]c2cc1C
8 | > 10 | 0.269 |  | CCc1nc(N2CCN(C)CC2)c2oc3ccccc3c2n1
9 | > 10 | 0.148 |  | Cc1nc(N2CCN(C)CC2)c2oc3ccccc3c2n1
